Test results taken from patent publication US4415566A, “Cephalosporin derivatives” (Boehringer Ingelheim GmbH, priority 1979, dated 1983).
Values after ≈ are worked out from the molar mass of the structure shown. Like-named read-outs stand apart in the source and are kept apart here.

Legend:
Proteus rettgeri = assay: Serial dilution test in the microtiter system (MIC), Prot. rettgeri; assay type: cell-based; conditions: Providencia rettgeri
Method: (§1) These tests were performed according to the method of the serial dilution test in the microtiter system. The effect of the substances on bacteriostasis was examined in a fluid medium. […] A nutrient medium of the following composition was used. 10 gm of peptone, 8 gm of meat extract-oxoid, 3 gm of sodium chloride, 2 gm of sec. sodium phosphate were diluted with distilled water to […] (pH 7.2-7.4). Only in the test against streptococci 1% of glucose was added. The age of the primary cultures was about 20 hours. The standardization of the pathogen suspension was effected by using a photometer according to "Eppendorf" (test tube dismeter 14 mm, filter 546 nm) with the aid of the turbidity of a comparison suspension consisting of barium sulfate, this suspension being prepared by addition of 3.0 ml of 1% barium chloride solution to 97 ml of 1% sulfuric acid. After the standardization, streptococcus aronson were further diluted to a concentration of 1:15 and the other microorganisms to a concentration of 1:1500 by means of a sodium chloride solution.
(§2) 16 mg of the test substance were put into a 10 ml-measuring flask and filled up to the mark with the solvent. The further dilution series was standardized with distilled water or the respective solvent.
(§3) The cavities of the microtiter plates were filled with 0.2 ml of nutrient medium. Then, 0.01 ml of the corresponding test substance dilution was added and inoculated with 0.01 ml of the standardized suspension. The bacteria were incubated at 37° C. for 18-20 hours. Control tests merely using the solvent were carried out simultaneously.
(§4) The measurement was carried out macroscopically to determine the minimal inhibitory (threshold) concentration, i.e. the lower still bacteriostatically effective concentration.
(§5) Staphylococcus aureus SG 511, Escherichia coli ATCC 11 775, Pseudomonas aeruginosa Hamburgensis and Pseudomonas aeruginosa Walter, Serratia marcescens ATCC 13880, Klebsiella pneumoniae ATCC 10 031 and 272, Proteus mirabilis Hamburgensis, Proteus rettgeri, Enterbacter cloaceae ATCC 13 047 and E. Coli R+TEM (β-lactamase carrier).

[1] = system: Proteus mirabilis Hamburgensis; assay: Serial dilution test in the microtiter system (MIC), Prot. mirabilis; assay type: cell-based
Method: as §1, §2, §3, §4, §5

[2] = system: Psuedomonas aeruginosa Walter; assay: In vivo activity in mice, Pseudomonas infection; set-up: species or system Female NMRI mice; conditions: Mus musculus, iPSC, sc, 168 h; Pseudomonas infection i.p.; s.c. administration; per dose; observation 7 days; read-out: ED50 (dose at which 50% of the animals survived)
Method: (§6) A number of compounds of this invention were tested in vivo in mice against experimental infections. Bacteria E. coli ATCC 11775 and Psuedomonas aeruginosa Walter were used as pathogens. An intraperitoneal infection with 0.2 ml of a 5% suspension of the bacteria was induced. This corresponds to about 2×10^6 E. Coli germs and 8×10^5 pseudomonas germs/mouse. […] The groups with E. coli infection were treated with the test compound three times on the first day (1, 4, and 7 hours post infectionem) and for two days thereafter twice a day. The groups with the pseudomonas infection were treated with the test compound 6 times on the first day (1, 3, 6, 9, 12 and 15 hours post infectionem) and for two days thereafter twice a day. The observation time was in both cases 7 days. The results of these tests with representatives of the penicillins and cephalosporins according to the invention are shown in the following table: […]

[3] = system: Enterbacter cloaceae ATCC 13 047; assay: Serial dilution test in the microtiter system (MIC), Eb. cloaceae ATCC 13047; assay type: cell-based
Method: as §1, §2, §3, §4, §5

[4] = system: Pseudomonas aeruginosa Walter; assay: Serial dilution test in the microtiter system (MIC), Pseud. aerug. Walter; assay type: cell-based
Method: as §1, §2, §3, §4, §5

[5] = system: Klebsiella pneumoniae 272; assay: Serial dilution test in the microtiter system (MIC), Klebs. pneum. 272; assay type: cell-based
Method: as §1, §2, §3, §4, §5

E. Coli ATCC 9637 = assay: Serial dilution test in the microtiter system (MIC), E. Coli ATCC 9637; assay type: cell-based; conditions: Escherichia coli, ATCC9637
[6] = system: Pseudomonas aeruginosa Hamburgensis; assay: Serial dilution test in the microtiter system (MIC), Pseud. aerug. Hbg.; assay type: cell-based
Method: as §1, §2, §3, §4, §5

[7] = system: Serratia marcescens ATCC 13880; assay: Serial dilution test in the microtiter system (MIC), Serrat. marcesc. ATCC 13880; assay type: cell-based
Method: as §1, §2, §3, §4, §5

[8] = system: Escherichia coli ATCC 11 775; assay: Serial dilution test in the microtiter system (MIC), E. Coli ATCC 11775; assay type: cell-based
Method: as §1, §2, §3, §4, §5

[9] = system: Klebsiella pneumoniae ATCC 10 031; assay: Serial dilution test in the microtiter system (MIC), Klebs. pneum. ATCC 10031; assay type: cell-based
Method: as §1, §2, §3, §4, §5

E. coli ATCC 11775 = assay: In vivo activity in mice, E. coli infection; set-up: species or system Female NMRI mice; conditions: Escherichia coli, ATCC11775, iPSC, sc, 168 h; E. coli infection i.p.; s.c. administration; per dose; observation 7 days; read-out: ED50 (dose at which 50% of the animals survived)
Method: as §6

[10] = Table III, Eb. cloaceae ATCC 13047, 37° C., 18-20 hours, read-out: MIC
[11] = Table III, Klebs. pneum. 272, 37° C., 18-20 hours, read-out: MIC
[12] = Table III, E. Coli ATCC 9637, 37° C., 18-20 hours, read-out: MIC
[13] = Table III, Prot. rettgeri, 37° C., 18-20 hours, read-out: MIC
[14] = Table III, Prot. mirabilis, 37° C., 18-20 hours, read-out: MIC
[15] = Table III, Pseud. aerug. Walter, 37° C., 18-20 hours, read-out: MIC
[16] = Table III, Pseud. aerug. Hbg., 37° C., 18-20 hours, read-out: MIC
[17] = ATCC13880, Table III, Serrat. marcesc. ATCC 13880, 37° C., 18-20 hours, read-out: MIC
[18] = Table III, E. Coli ATCC 11775, 37° C., 18-20 hours, read-out: MIC

Row | SMILES | MIC [1] | ED50 [2] | MIC [4] | MIC (E. Coli ATCC 9637; [12]) | MIC [6] | MIC [8] | ED50 (E. coli ATCC 11775) | MIC (Proteus rettgeri; [13]) | MIC [1, 14] | MIC [3] | MIC [4, 15] | MIC [5]; 272 | MIC [6, 16] | MIC [7, 17] | MIC [8, 18] | MIC [9] | MIC (E. Coli ATCC 9637) | further results
1 | CC1(C)S[C@@H]2[C@H](NC(=O)[C@H](NC(=O)N3CCNC3=O)c3ccccc3)C(=O)N2[C@H]1C(=O)O [Azlocillin, reference compound] | 2 µg/mL (≈ 4.33 µM) | ~110 mg/kg | 8 µg/mL (≈ 17.3 µM) | 16 µg/mL (≈ 34.7 µM) | 8 µg/mL (≈ 17.3 µM) | 8 µg/mL (≈ 17.3 µM) | ~35 mg/kg |  |  |  |  |  |  |  |  |  |  | MIC (Proteus rettgeri): 8 µg/mL (≈ 17.3 µM); MIC [3, 10]: 32 µg/mL (≈ 69.3 µM); MIC [5, 11]: 32 µg/mL (≈ 69.3 µM); MIC ([7]; ATCC13880): 4 µg/mL (≈ 8.67 µM); MIC ([9]; Table III, Klebs. pneum. ATCC 10031, 37° C., 18-20 hours, read-out: MIC): 32 µg/mL (≈ 69.3 µM)
2 | CC1(C)S[C@@H]2[C@H](NC(=O)[C@H](NC(=O)Nc3cnc(Nc4ccc(S(C)(=O)=O)nc4)nc3O)c3ccc(O)cc3)C(=O)N2[C@H]1C(=O)O [Compound E, D-α-{3-[4-Hydroxy-2-(6'-methylsulfonyl-3'-pyridylamino)-5-pyrimidinyl]-ureido}-p-hydroxy-benzyl-penicillin sodium] |  |  |  | 0.2 µg/mL |  |  |  | 0.25 µg/mL | 0.06 µg/mL | 2 µg/mL | 1 µg/mL | 2 µg/mL | 1 µg/mL | 0.2 µg/mL | 0.2 µg/mL | 2 µg/mL |  | 
3 | CC1(C)S[C@@H]2[C@H](NC(=O)[C@H](NC(=O)Nc3cnc(NCc4ccco4)nc3O)c3ccc(O)cc3)C(=O)N2[C@H]1C(=O)O [D, D-α-{3-[4-Hydroxy-2-(2'-furylmethylamino)-5-pyrimidinyl]-ureido}-p-hydroxy-benzyl-penicillin sodium] | 0.25 µg/mL | 1.5 mg/kg | 2 µg/mL | 0.5 µg/mL |  | 1 µg/mL | 0.8 mg/kg | 0.5 µg/mL |  | 4 µg/mL |  |  | 1 µg/mL | 0.5 µg/mL |  | 4 µg/mL |  | MIC [5, 11]: 8 µg/mL
4 | CC1(C)S[C@@H]2[C@H](NC(=O)[C@H](NC(=O)Nc3cnc(Nc4ccc(O)nc4)nc3O)c3ccc(O)cc3)C(=O)N2[C@H]1C(=O)O [G, D-α-{3-[4-Hydroxy-2-(6'-hydroxy-3'-pyridylamino)-5-pyrimidinyl]-ureido}-p-hydroxy-benzyl-penicillin sodium] |  |  |  | 0.2 µg/mL |  |  |  | 0.5 µg/mL | 0.01 µg/mL | 4 µg/mL | 0.5 µg/mL | 4 µg/mL | 0.5 µg/mL | 0.1 µg/mL | 0.2 µg/mL | 4 µg/mL |  | 
5 | CC1(C)S[C@@H]2[C@H](NC(=O)[C@H](NC(=O)Nc3cnc(NCc4cccnc4)nc3O)c3ccc(O)cc3)C(=O)N2[C@H]1C(=O)O [A, D-α-{3-[4-Hydroxy-2-(3'-pyridylmethylamino)-5-pyrimidinyl]-ureido}-p-hydroxy-benzyl-penicillin sodium] |  | 1.2 mg/kg |  |  |  |  | 0.7 mg/kg | 1 µg/mL | 0.12 µg/mL | 4 µg/mL | 1 µg/mL | 8 µg/mL |  | 0.5 µg/mL | 0.5 µg/mL | 8 µg/mL | 0.5 µg/mL | 
6 | CC1(C)S[C@@H]2[C@H](NC(=O)[C@H](NC(=O)Nc3cnc(Nc4ccc(C(N)=O)s4)nc3O)c3ccc(O)cc3)C(=O)N2[C@H]1C(=O)O [B, D-α-{3-[2-(5'-Aminocarbonyl-2'-thienylamino)-4-hydroxy-5-pyrimidinyl]-ureido}-p-hydroxy-benzyl-penicillin sodium] |  | 4.8 mg/kg |  | 0.5 µg/mL |  | 0.25 µg/mL | 1.3 mg/kg | 0.5 µg/mL | 0.06 µg/mL | 2 µg/mL | 1 µg/mL | 2 µg/mL | 1 µg/mL | 0.2 µg/mL |  | 2 µg/mL |  | 
7 | CC1(C)S[C@@H]2[C@H](NC(=O)[C@H](NC(=O)Nc3cnc(NCc4cccs4)nc3O)c3ccc(O)cc3)C(=O)N2[C@H]1C(=O)O [C, D-α-{3-[4-Hydroxy-2-(2'-thienylmethylamino)-5-pyrimidinyl]-ureido}-p-hydroxy-benzyl-penicillin sodium] | 0.25 µg/mL | 2.5 mg/kg | 1 µg/mL |  | 2 µg/mL |  | 0.8 mg/kg |  |  |  |  | 2 µg/mL |  | 0.5 µg/mL | 0.5 µg/mL | 2 µg/mL | 0.5 µg/mL | MIC (Proteus rettgeri): 0.12 µg/mL; MIC [3, 10]: 0.5 µg/mL
8 | Cn1nnnc1SCC1=C(C(=O)O)N2C(=O)[C@@H](NC(=O)C(NC(=O)Nc3cnc(NCc4ccco4)nc3O)c3cccs3)[C@H]2SC1 (single isomer, unassigned) [M] |  |  | 4 µg/mL (≈ 5.72 µM) |  | 8 µg/mL (≈ 11.4 µM) |  | 0.8 mg/kg |  |  |  |  | 0.5 µg/mL (≈ 0.715 µM) |  |  |  |  |  | MIC (Proteus rettgeri; Table IV, Prot. rettg., 37° C., 18-20 hours, read-out: MIC): 0.5 µg/mL (≈ 0.715 µM); MIC ([1]; Table IV, Prot. mir. Hbg., 37° C., 18-20 hours, read-out: MIC): 0.12 µg/mL (≈ 0.171 µM); MIC ([7]; ATCC13880, Table IV, Serr. marcesc. ATCC 13880, 37° C., 18-20 hours, read-out: MIC): 0.5 µg/mL (≈ 0.715 µM)
9 | Cc1ncc(CNc2ncc(NC(=O)N[C@@H](C(=O)N[C@@H]3C(=O)N4[C@@H]3SC(C)(C)[C@@H]4C(=O)O)c3ccc(O)cc3)c(O)n2)cn1 [F, D-α-{3-[4-Hydroxy-2-(2'-methyl-5'-pyrimidinylmethylamino)-5-pyrimidinyl]-ureido}-p-hydroxy-benzyl-penicillin sodium] |  |  |  |  |  |  |  | 0.5 µg/mL | 0.06 µg/mL | 4 µg/mL | 1 µg/mL | 8 µg/mL |  | 0.5 µg/mL | 0.5 µg/mL | 8 µg/mL | 0.5 µg/mL | 
